According to patent US9125930B2, “EGFR aptamer inhibitor for use in therapy and diagnosis” (CONSIGLIO NAZIONALE DELLE RICERCHE, priority 2010, dated 2015):

Key:
A549 cells [1] = experiment: Cell viability assay, A549 cells; assay type: cell-based, human; conditions: dose-dependent experiments, 0.1-10 μM
Protocol: Cell viability was assessed with CellTiter 96® AQueous One Solution Cell Proliferation Assay (Promega, Madison, Wis.) according to according to the supplier's instructions. […] The optical density (OD) was measured using a Multilabel Counter (Bio-Rad) at a wavelength of 490 nm and cell viability was calculated by the following formula: Cell viability (%)=(OD treated cells/OD control cells)×100%. FACS Analysis

A549 cells [2] = experiment: Apoptosis assay by PI staining and FACS; assay type: cell-based, human; parameters: dose or concentration left out as unconfirmed; conditions: A549, 24 hs or 48 hs
Protocol: For apoptosis assay, DNA content analysis was performed by staining with propidium iodide (PI) and analyzing cells by flow cytometry (FACS).
[…] Cells were incubated with 2 μg/ml propidium iodide (PI, Sigma, St. Louis, Mo.) for 30 min at 4° C. and recovered. The relative proportion of cells with DNA content indicative of apoptosis (ipoploid) was determined by FACS.

EGFR = EGFR (Homo sapiens, UniProt P00533); experiment: Immunoblot of EGF-dependent EGFR phosphorylation in A549 cells; assay type: cell-based; parameters: endogenous in cells; host or cells: A549; conditions: 200 nM aptamer, following 5 min of EGFR stimulation
Protocol: […] The aptamers were subjected to a short denaturation-renaturation step (85° C. for 5 min, snap-cooled on ice for 2 min, and allowed to warm up to 37° C.) before each treatment. To prepare cell extracts, cells were washed twice in ice-cold PBS, and lysed in buffer A (50 mM Tris-HCl pH 8.0 buffer containing 150 mM NaCl, 1% Nonidet P-40, 2 mg/ml aprotinin, 1 mg/ml pepstatin, 2 mg/ml leupeptin, 1 mM Na3VO4). Protein concentration was determined by the Bradford assay using bovine serum albumin as the standard. The cell lysates were subjected to SDS-PAGE. Gels were electroblotted into polyvinylidene difluoride membranes (Millipore Co., Bedford, Mass.), and filters were probed with the indicated primary antibodies: anti-EGFR and anti-phospho-EGFR (Tyr1062), anti-phospho-44/42 MAP kinase (E10) (also indicated as p-Erk), anti-phospho-Akt, anti-Akt and anti-phospho-STAT3 (Tyr705), anti-ErbB2 (all from Cell Signaling, Beverly, Mass., United States); anti-Erk1, anti-EGFR, anti-ErbB3, anti-ErbB4 (C-16) (Santa Cruz Biotechnology, California, United States); anti-α-αtubulin (DM 1A) (Sigma, St. Louis, Mo.).
Proteins were visualized with peroxidase-conjugated secondary antibodies using the enhanced chemiluminescence system (GE Healthcare Bio-Sciences, Uppsala, Sweden). […]

A431 tumors = experiment: Tumor growth in A431 mouse xenograft; assay type: in vivo; conditions: 200 pmoles intratumoral, three times a week for two weeks
Protocol: Athymic nude mice (nu/nu) were maintained in a sterile environment according to guidelines for Animal Care. Mice were inoculated with either 3×10^6 (in 100 μl) in vitro propagated A431 cells subcutaneously injected into each flank. Approximately 24 non-necrotic tumors for each tumor type, of about 1 cm in diameter, were randomly divided into three groups of eight mice per treatment group as follows: group 1, no treatment; group 2, treated with scrambled RNA as a negative control (200 pmols/injection); group 3, treated with CL4 42-81 (200 pmols/injection). Compounds were injected intra-tumorally in 100-1 μl volumes three times a week for two weeks. Day 0 marks the first day of injection. The aptamers may also be administered systemically, in particular when optimized by addition of polyethylene glycol (PEG).
The volume injections are small enough to preclude the compounds being forced inside the cells due to a nonspecific high-pressure injection. Tumors were measured every 3 days with calipers in three dimensions. The following formula was used to calculate tumor volume: VT=(W×L×H)×0.5236 (W, the shortest dimension; L, the longest dimension; H, the intermediate dimension). The growth curves are plotted as the means tumor volume±s.e.m. Statistical analysis of tumor size data was conducted using a one-way ANOVA. A P-value of 0.05 or less was considered to indicate a significant difference. […]

A549 cells [3] = experiment: Binding of [32P]-labeled aptamer on A549 cells; parameters: species or system human; conditions: binding to A549 target cells
Protocol: Binding experiments were performed with 5′-[^32P]-labeled RNA. For labeling 2′-F-Py RNAs were 5′-end dephosphorylated using bacterial alcaline phosphatase (Invitrogen, Carlsbad, Calif.) before [^32P]-5′-end-labeled using T4 kinase (Invitrogen) and γ-[^32P]-ATP (6×10^3 Ci/mmol, GE Healthcare Bio-Sciences, Uppsala, Sweden) according to the supplier's instructions.
For binding experiments on cells, 3.5×10^4 cells were plated in 24-well plates in triplicate and were incubated with CL4 42-81 aptamer the scrambled sequence used as a negative control at 100 nM concentration in 200 μl of DMEM serum free for 20 min at RT in the presence of 100 μg/ml polyinosine as a nonspecific competitor (Sigma, St. Louis, Mo.). After five washings with 500 μl DMEM, bound sequences were recovered in 300 μl of SDS 1%, and the amount of radioactivity recovered was counted.

Molecule: COc1cc2ncnc(Nc3ccc(F)c(Cl)c3)c2cc1OCCCN1CCOCC1 [gefitinib, reference compound]
- sensitivity of A549 cell viability (A549 cells [1]): resistant

Molecule: scrambled aptamer: scrambled aptamer used as negative control: 5′ UUCGUACCGGGUAGGUUGGCUUGCACAUAGAACGUGUCA 3′ (SEQ ID NO: 2) (listed as RNA, chemistry not given here) [reference compound]
- effect on percentage of apoptotic cells (A549 cells [2]): No effect
- inhibition of EGF-dependent phosphorylation of EGFR (EGFR): No effect
- tumor volume (A431 tumors): not observed

B1: CL4: entire 92 nt aptamer generated by differential cell-SELEX on A549 cells (SEQ ID NO: 4), parent of CL4 42-81 (nucleic acid)
chain: GGGAGACAAGAAUAAACGCUCAACGACACGUUGCCAGCCGGAGCCUUAGUAACGUGCUUUGAUGUCGAUUCGACAGGAGGCUCACAACAGGC
modifications: listed as RNA, chemistry not given here
- Kd (A549 cells [3]): 0.046 µM
